The text below walks through data of US20250154198A1, “PEPTIDE INHIBITORS OF INTERLEUKIN-23 RECEPTOR” (Zealand Pharma A/S, priority 2021, published 2025).

Data set [1] has as its target T1, human IL-23R (Homo sapiens, UniProt Q5VWK5).
T1 construct: UniProtKB—Q5VWK5, amino acids 22-629; secretion signal of the plasmid (Promega N1371); expressed in transfected cells
T1 sequence (Q5VWK5 22-629): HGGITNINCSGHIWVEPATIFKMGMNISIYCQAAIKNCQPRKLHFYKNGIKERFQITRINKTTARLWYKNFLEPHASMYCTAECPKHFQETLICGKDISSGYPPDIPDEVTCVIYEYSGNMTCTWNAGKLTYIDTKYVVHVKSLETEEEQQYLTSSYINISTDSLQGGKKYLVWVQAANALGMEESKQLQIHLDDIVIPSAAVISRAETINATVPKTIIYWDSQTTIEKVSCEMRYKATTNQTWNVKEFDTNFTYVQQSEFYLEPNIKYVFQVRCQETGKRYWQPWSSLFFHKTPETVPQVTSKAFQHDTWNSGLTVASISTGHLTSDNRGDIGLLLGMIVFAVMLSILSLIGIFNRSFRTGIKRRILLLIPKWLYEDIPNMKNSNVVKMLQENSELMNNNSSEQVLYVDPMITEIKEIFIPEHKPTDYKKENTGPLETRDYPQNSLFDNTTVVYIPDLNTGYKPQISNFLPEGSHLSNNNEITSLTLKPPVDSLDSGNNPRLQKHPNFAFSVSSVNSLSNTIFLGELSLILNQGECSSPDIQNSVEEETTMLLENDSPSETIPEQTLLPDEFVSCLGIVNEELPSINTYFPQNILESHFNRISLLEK
As to the kind of experiment: Binding assay (NanoBRET displacement of fluorophore-labelled reference compound) for estimating binding affinity to human IL-23R. The conditions noted are these: Table 3-1; read-out: Ki hIL-23R.

Data set [2] in a line: Peptide stability in simulated intestinal fluid (SIF). The data set is classed as in vitro ADME. The conditions noted are these: Table 3-2, porcine pancreatin, pH 6.8, 37° C., 10 μM; for remaining at 1 h, 10 μM / remaining at 4 h, 10 μM: pig, simulated intestinal fluid (SIF) with porcine pancreatin; for remaining at 1 h, 10 μM: read-out: SIF (% remaining 1 h); for remaining at 4 h, 10 μM: read-out: SIF (% remaining 4 h). The procedure: Determination of Peptide Stability in Simulated Gastric Fluid (SGF) and Simulated Intestinal Fluid (SIF)
SGF was prepared by dissolving sodium chloride (0.2 g) in 50 mL of water. A volume of 0.7 mL of 10 M HCl was added to adjust the pH of the solution to 1.2 and the volume made up to 100 mL with water. […] SIF was prepared by dissolving monobasic potassium phosphate (0.68 g) in 50 mL of water and adjusting the pH to 6.8 with 1 M NaOH. The volume was subsequently made up to 100 mL with water. 200 mg porcine pancreatin (P1625, Sigma Aldrich) was gently dissolved into 20 mL preheated (37° C.) solution (10 g/L) immediately prior to the incubation.
The incubation was performed at 37° C. with gentle shaking. […] After the last timepoint, the sampling plate was mixed for 10 min on a shaking table and centrifuged 10 min at 2200 g. 70 μL resulting supernatant was diluted with 150 μL water, mixed and centrifugated before analysis by liquid chromatography high resolution mass spectrometry. […] Percent remaining at each timepoint was calculated relative to timepoint zero based on absolute peak areas.

Each structure is given as a SMILES string. pKi: −log10 of the molar value. *1 amine or outer side, *2 acyl side, *3 side chain or, on linkers, in order; H or OH if unused. Where a SMILES comes first, the peptide text is derived from it. Bridges are numbered along the chain shown (N, C = ends). [ ]: non-standard residue; d: D form. Pipz(1-CH2CO,4-CH2CH2NH) = O=C(CN1CCN(CCN[*:1])CC1)[*:2]; dTrp(6-F) = N[C@H](Cc1c[nH]c2cc(F)ccc12)C(=O)O; αMeAla(3-pyridyl) = C[C@](N)(Cc1cccnc1)C(=O)O; Phe(4-Me) = Cc1ccc(C[C@H](N)C(=O)O)cc1; 2Nal = N[C@@H](Cc1ccc2ccccc2c1)C(=O)O; AEF = NCCOc1ccc(C[C@H](N)C(=O)O)cc1; NMeR = CN[C@@H](CCCNC(=N)N)C(=O)O; X1 = O=C(Cc1ccc(CN[*:1])cc1)[*:2]; αMeL = CC(C)C[C@](C)(N)C(=O)O; CH2COCH2 = O=C(C[*:1])C[*:2]; αMeV = CC(C)[C@](C)(N)C(=O)O; 3Amb = NCc1cccc(C(=O)O)c1; Dab = NCC[C@H](N)C(=O)O; Ahx = NCCCCCC(=O)O

As for `CC(C)C[C@]1(C)NC(=O)[C@H](Cc2ccc3ccccc3c2)NC(=O)[C@H](Cc2ccc(OCCN)cc2)NC(=O)[C@@H]2CCC(=O)NCC[C@H](NC(=O)[C@H](CO)NC(=O)Cc3ccc(cc3)CNC(=O)CC[C@@H](C(=O)N[C@@H](CCN)C(=O)N[C@@H](Cc3cccnc3)C(N)=O)NC1=O)C(=O)N[C@@H](Cc1c[nH]c3ccccc13)C(=O)N[C@@H](CCC(N)=O)C(=O)N2` (relative stereo) [Compound 123, [4-Aminomethyl-phenylacetyl](1c)*S[Dab](2c)WQE(2c)[Y(2-aminoethoxy)][2-Nal][2-Me-Leu]E(1c)[Dab][3-(3-Pyridyl)-Ala]-[NH2]], the pKi in data set [1] was 11.11. In addition, in data set [2], the fraction remaining at 1 h, 10 μM was 46%. The fraction remaining at 4 h, 10 μM in data set [2] (4 h) is 4%.

In the case of `CC(C)C[C@]1(C)NC(=O)[C@H](Cc2ccc3ccccc3c2)NC(=O)[C@H](Cc2ccc(OCCN)cc2)NC(=O)[C@@H]2CSCC(=O)CSC[C@H](NC(=O)[C@H](CO)NC(=O)CCCCCNC(=O)CC[C@@H](C(=O)N[C@H](CCCNC(=N)N)C(N)=O)NC1=O)C(=O)N[C@@H](Cc1c[nH]c3ccccc13)C(=O)N[C@@H](CCC(N)=O)C(=O)N2` [Compound 87, [6-Aminohexanoyl](1c)*SC(2a)WQC(2a)[Y(2-aminoethoxy)][2-Nal][2-Me-Leu]E(1c)[{d}R]-[NH2]] ([Ahx]SCWQC[AEF][2Nal][αMeL]E[dR]-NH2; linker 3-6 via CH2COCH2; lactam N-10), the pKi in data set [1] is 9.36. Besides, in data set [2], the share remaining at 1 h, 10 μM was 95%. With `CC(=O)N[C@H]1CCCCNC(=O)CC[C@@H](C(=O)N[C@H](CCCNC(=N)N)C(N)=O)NC(=O)[C@](C)(CC(C)C)NC(=O)[C@H](Cc2ccc3ccccc3c2)NC(=O)[C@H](Cc2ccc(OCCN)cc2)NC(=O)[C@@H]2CSCC(=O)CSC[C@H](NC(=O)[C@H]([C@@H](C)O)NC1=O)C(=O)N[C@@H](Cc1c[nH]c3ccccc13)C(=O)N[C@@H](CCC(N)=O)C(=O)N2` [Compound 85, [Ac]-K(1c)TC(2a)WQC(2a)[Y(2-aminoethoxy)][2-Nal][2-Me-Leu]E(1c)[{d}R]-[NH2]] (Ac-KTCWQC[AEF][2Nal][αMeL]E[dR]-NH2; lactam 1-10; linker 3-6 via CH2COCH2), the pKi in data set [1] is 9.49. The fraction remaining at 4 h, 10 μM in data set [2] (4 h) was 74%. Take `CC[C@H](C)[C@@H]1NC(=O)Cc2ccc(cc2)CNC(=O)CC[C@@H](C(=O)N[C@@H](CCN)C(=O)N[C@@](C)(Cc2cccnc2)C(N)=O)NC(=O)[C@](C)(C(C)C)NC(=O)[C@@H](Cc2c[nH]c3cc(F)ccc23)NC(=O)[C@H](Cc2ccc(C)cc2)NC(=O)[C@@H]2CCNC(=O)CC[C@H](NC1=O)C(=O)N[C@@H](Cc1c[nH]c3ccccc13)C(=O)N[C@@H](CCC(N)=O)C(=O)N2` [Compound 177, [4-Aminomethyl-phenylacetyl](1c)*IE(2c)WQ[Dab](2c)[F(4-Me)][{d}6-F-Trp][2-Me-Val]E(1c)[Dab][2-Me-3-(3-Pyridyl)-Ala]-[NH2]] ([X1]IEWQ[Dab][Phe(4-Me)][dTrp(6-F)][αMeV]E[Dab][αMeAla(3-pyridyl)]-NH2; lactam 3-6, N-10): the amount remaining at 4 h, 10 μM in data set [2] (4 h) was 63%. For the molecule `CC(=O)N[C@H]1CCCCNC(=O)CC[C@@H](C(=O)N[C@@H](CCCNC(=N)N)C(N)=O)NC(=O)[C@@H](CC(C)C)NC(=O)[C@H](Cc2ccc3ccccc3c2)NC(=O)[C@H](Cc2ccc(OCCN)cc2)NC(=O)[C@@H]2CSCC(=O)CSC[C@H](NC(=O)[C@H](CO)NC1=O)C(=O)N[C@@H](Cc1c[nH]c3ccccc13)C(=O)N[C@@H](CCC(N)=O)C(=O)N2` [Compound 48, [Ac]-K(1c)SC(2a)WQC(2a)[Y(2-aminoethoxy)][2-Nal][{d}L]E(1c)R-[NH2]] (Ac-KSCWQC[AEF][2Nal][dL]ER-NH2; lactam 1-10; linker 3-6 via CH2COCH2), the pKi in data set [1] is 7.77. Besides, in data set [2], the fraction remaining at 1 h, 10 μM is 0%. The share remaining at 4 h, 10 μM in data set [2] (4 h) was 0%. Regarding `CC(C)C[C@]1(C)NC(=O)[C@H](Cc2ccc3ccccc3c2)NC(=O)[C@H](Cc2ccc(OCCN)cc2)NC(=O)[C@@H]2CSCC(=O)CSC[C@H](NC(=O)[C@H](CO)NC(=O)c3cccc(c3)CNC(=O)CC[C@@H](C(=O)N(C)[C@@H](CCCNC(=N)N)C(N)=O)NC1=O)C(=O)N[C@@H](Cc1c[nH]c3ccccc13)C(=O)N[C@@H](CCC(N)=O)C(=O)N2` [Compound 43, [(3-Aminomethyl)benzoyl](1c)*SC(2a)WQC(2a)[Y(2-aminoethoxy)][2-Nal][2-Me-Leu]E(1c)[N-Me-Arg]-[NH2]] ([3Amb]SCWQC[AEF][2Nal][αMeL]E[NMeR]-NH2; linker 3-6 via CH2COCH2; lactam N-10), the fraction remaining at 4 h, 10 μM in data set [2] (4 h) was 33%. With `CC(=O)N[C@H]1CCCCNC(=O)CC[C@@H](C(=O)N[C@@H](CCCNC(=N)N)C(N)=O)NC(=O)[C@](C)(CC(C)C)NC(=O)[C@H](Cc2ccc3ccccc3c2)NC(=O)[C@H](Cc2ccc(OCCN)cc2)NC(=O)[C@@H]2CSCC(=O)CSC[C@H](NC(=O)[C@H](CO)NC1=O)C(=O)N[C@@H](Cc1c[nH]c3ccccc13)C(=O)N[C@@H](CCC(N)=O)C(=O)N2` [Compound 47, [Ac]-K(1c)SC(2a)WQC(2a)[Y(2-aminoethoxy)][2-Nal][2-Me-Leu]E(1c)R-[NH2]] (Ac-KSCWQC[AEF][2Nal][αMeL]ER-NH2; lactam 1-10; linker 3-6 via CH2COCH2), the share remaining at 1 h, 10 μM in data set [2] was 2%. Moreover, the fraction remaining at 4 h, 10 μM in data set [2] (4 h) was 0%.

As for `CC(C)C[C@@H]1NC(=O)[C@H](Cc2c[nH]c3ccccc23)NC(=O)[C@H](Cc2c[nH]c3ccccc23)NC(=O)[C@@H]2CSCC(=O)CSC[C@H](NC(=O)[C@H](CO)NC(=O)[C@@H](NC(=O)[C@@H](N)CC(=O)O)CSCC(=O)CSC[C@@H](C(=O)N[C@@H](CCCNC(=N)N)C(N)=O)NC1=O)C(=O)N[C@@H](Cc1c[nH]c3ccccc13)C(=O)N[C@@H](CCC(N)=O)C(=O)N2` (single isomer, unassigned) [I3 (isomer 3), H-DC(1a)SC(2a)WQC(2a)WWLC(1a)R-[NH2], reference compound], the “SIF (% remaining 4 h)” value in data set [2] (4 h) is listed as 0%. For the molecule `CC(C)C[C@]1(C)NC(=O)[C@H](Cc2ccc3ccccc3c2)NC(=O)[C@H](Cc2ccc(OCCN)cc2)NC(=O)[C@@H]2CSCC(=O)CSC[C@H](NC(=O)[C@H](CO)NC(=O)CN3CCN(CCNC(=O)CC[C@@H](C(=O)N[C@H](CCCNC(=N)N)C(N)=O)NC1=O)CC3)C(=O)N[C@@H](Cc1c[nH]c3ccccc13)C(=O)N[C@@H](CCC(N)=O)C(=O)N2` [Compound 90, [(4-(2-Aminoethyl)-piperazine-1-yl)-acetyl](1c)*SC(2a)WQC(2a)[Y(2-aminoethoxy)][2-Nal][2-Me-Leu]E(1c)[{d}R]-[NH2]] ([Pipz(1-CH2CO,4-CH2CH2NH)]SCWQC[AEF][2Nal][αMeL]E[dR]-NH2; linker 3-6 via CH2COCH2; lactam N-10), the pKi in data set [1] is 9.15. Moreover, the share remaining at 4 h, 10 μM in data set [2] (4 h) was 67%.

Usually pKi stands for the negative decadic logarithm of the Ki, by convention in mol/L. The term amount remaining denotes what is left of the initial amount, in per cent.
